Data on 25 molecules can be found in patent US11345678B2, “Benzopyrazole compound used as RHO kinase inhibitor” (MEDSHINE DISCOVERY INC., priority 2018, dated 2022).

Usually IC50 stands for the concentration needed to halve the response being measured. Read a low IC50 as inhibition by little substance.

In experiment [1] the target is ROCK2 (Homo sapiens (Human), UniProt O75116). Briefly: In vitro inhibitory activity against ROCK protein kinase (33P-ATP filter-binding), ROCK2. Format: biochemical. The conditions noted are these: 1 nM ROCK protein kinase, 20 μM Long S6 Kinase substrate peptide. The protocol: (§1) 1. In Vitro Evaluation of the Inhibitory Activity Against ROCK Protein Kinase
(§2) Experimental purpose: to detect the inhibitory IC50 value of the compound against ROCK protein kinase.
(§3) Assay buffer solution: 20 mM 4-hydroxyethylpiperazine ethanesulfonic acid (pH 7.5), 10 mM magnesium chloride, 1 mM ethylene glycol-bis-(2-aminoethyl)tetraacetic acid, 0.02% polyethylene glycol monododecyl ether, 0.02 mg/mL bovine serum albumin, 0.1 mM sodium vanadate, 2 mM dithiothreitol, 1% DMSO.
(§4) The freshly prepared buffer solution was added to ROCK protein kinase substrate (Long S6 Kinase substrate peptide), at a concentration of 20 μM, then 1 nM ROCK protein kinase was added thereto and stirred evenly. Echo550 was used to add a series of DMSO dilutions containing the test compound (starting from 10 μM, serially diluted by 3 times), the solution was pre-incubated at room temperature for 20 minutes, then ^33P-ATP (radiation intensity 10 μCi/μL) was added to initiate the reaction, and the reaction was performed at room temperature for two hours. Then the solution was filtered by P81 ion exchange paper (Whatman #3698-915) and washed with 0.75% phosphoric acid. The radiation intensity was determined by Filter-Binding method.
(§5) The protein kinase inhibitory activity of the compound was expressed as the remaining protein kinase activity relative to the blank substrate (simply DMSO). Prism software package (GraphPad Software, San Diego Calif., USA) was used to calculate IC50 value and the curve.

Experiment [2] addresses ROCK1 (Homo sapiens (Human), UniProt Q13464). Briefly: In vitro inhibitory activity against ROCK protein kinase (33P-ATP filter-binding), ROCK1. The conditions noted are these: 1 nM ROCK protein kinase, 20 μM Long S6 Kinase substrate peptide. In kind it is biochemical. As for the experimental part: as §1, §2, §3, §4, §5

Molecules are shown by their SMILES.

Chain of ROCK2 (O75116 whole entry): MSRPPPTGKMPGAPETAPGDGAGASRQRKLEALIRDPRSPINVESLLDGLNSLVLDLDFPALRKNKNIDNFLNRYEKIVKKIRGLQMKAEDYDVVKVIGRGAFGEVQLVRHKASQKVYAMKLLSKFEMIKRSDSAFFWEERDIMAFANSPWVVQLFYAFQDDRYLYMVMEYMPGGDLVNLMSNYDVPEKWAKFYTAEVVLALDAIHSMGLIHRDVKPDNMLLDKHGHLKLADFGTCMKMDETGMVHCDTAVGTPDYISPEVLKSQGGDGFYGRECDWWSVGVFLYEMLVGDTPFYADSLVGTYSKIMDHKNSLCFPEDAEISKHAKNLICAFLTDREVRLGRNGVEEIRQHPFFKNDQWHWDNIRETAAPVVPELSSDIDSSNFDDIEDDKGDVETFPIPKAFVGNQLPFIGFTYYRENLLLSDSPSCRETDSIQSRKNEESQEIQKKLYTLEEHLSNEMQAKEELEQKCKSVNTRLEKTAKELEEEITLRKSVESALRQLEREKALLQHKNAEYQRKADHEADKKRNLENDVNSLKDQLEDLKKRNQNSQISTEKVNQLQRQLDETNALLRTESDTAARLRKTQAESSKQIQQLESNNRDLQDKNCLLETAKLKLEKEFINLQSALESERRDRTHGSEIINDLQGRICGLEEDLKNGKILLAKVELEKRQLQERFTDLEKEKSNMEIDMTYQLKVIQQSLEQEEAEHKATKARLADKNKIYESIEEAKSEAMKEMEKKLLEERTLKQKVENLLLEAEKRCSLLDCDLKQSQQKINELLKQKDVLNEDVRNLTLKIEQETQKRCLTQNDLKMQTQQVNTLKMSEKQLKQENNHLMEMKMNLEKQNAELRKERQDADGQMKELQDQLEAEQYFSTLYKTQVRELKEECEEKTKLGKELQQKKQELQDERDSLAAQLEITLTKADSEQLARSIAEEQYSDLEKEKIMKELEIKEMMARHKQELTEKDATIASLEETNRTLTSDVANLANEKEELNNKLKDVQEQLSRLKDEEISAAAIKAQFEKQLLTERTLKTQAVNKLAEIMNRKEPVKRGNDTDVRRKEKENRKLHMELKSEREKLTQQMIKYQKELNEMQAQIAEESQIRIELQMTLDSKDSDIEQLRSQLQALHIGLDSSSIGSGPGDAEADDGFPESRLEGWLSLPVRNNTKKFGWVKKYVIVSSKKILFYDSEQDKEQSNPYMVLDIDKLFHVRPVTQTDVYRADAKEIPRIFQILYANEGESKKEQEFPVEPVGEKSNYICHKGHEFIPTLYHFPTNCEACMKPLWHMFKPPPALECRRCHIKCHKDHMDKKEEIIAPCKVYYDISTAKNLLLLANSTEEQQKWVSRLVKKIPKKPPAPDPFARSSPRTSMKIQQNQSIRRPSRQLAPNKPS
Chain of ROCK1 (Q13464 whole entry): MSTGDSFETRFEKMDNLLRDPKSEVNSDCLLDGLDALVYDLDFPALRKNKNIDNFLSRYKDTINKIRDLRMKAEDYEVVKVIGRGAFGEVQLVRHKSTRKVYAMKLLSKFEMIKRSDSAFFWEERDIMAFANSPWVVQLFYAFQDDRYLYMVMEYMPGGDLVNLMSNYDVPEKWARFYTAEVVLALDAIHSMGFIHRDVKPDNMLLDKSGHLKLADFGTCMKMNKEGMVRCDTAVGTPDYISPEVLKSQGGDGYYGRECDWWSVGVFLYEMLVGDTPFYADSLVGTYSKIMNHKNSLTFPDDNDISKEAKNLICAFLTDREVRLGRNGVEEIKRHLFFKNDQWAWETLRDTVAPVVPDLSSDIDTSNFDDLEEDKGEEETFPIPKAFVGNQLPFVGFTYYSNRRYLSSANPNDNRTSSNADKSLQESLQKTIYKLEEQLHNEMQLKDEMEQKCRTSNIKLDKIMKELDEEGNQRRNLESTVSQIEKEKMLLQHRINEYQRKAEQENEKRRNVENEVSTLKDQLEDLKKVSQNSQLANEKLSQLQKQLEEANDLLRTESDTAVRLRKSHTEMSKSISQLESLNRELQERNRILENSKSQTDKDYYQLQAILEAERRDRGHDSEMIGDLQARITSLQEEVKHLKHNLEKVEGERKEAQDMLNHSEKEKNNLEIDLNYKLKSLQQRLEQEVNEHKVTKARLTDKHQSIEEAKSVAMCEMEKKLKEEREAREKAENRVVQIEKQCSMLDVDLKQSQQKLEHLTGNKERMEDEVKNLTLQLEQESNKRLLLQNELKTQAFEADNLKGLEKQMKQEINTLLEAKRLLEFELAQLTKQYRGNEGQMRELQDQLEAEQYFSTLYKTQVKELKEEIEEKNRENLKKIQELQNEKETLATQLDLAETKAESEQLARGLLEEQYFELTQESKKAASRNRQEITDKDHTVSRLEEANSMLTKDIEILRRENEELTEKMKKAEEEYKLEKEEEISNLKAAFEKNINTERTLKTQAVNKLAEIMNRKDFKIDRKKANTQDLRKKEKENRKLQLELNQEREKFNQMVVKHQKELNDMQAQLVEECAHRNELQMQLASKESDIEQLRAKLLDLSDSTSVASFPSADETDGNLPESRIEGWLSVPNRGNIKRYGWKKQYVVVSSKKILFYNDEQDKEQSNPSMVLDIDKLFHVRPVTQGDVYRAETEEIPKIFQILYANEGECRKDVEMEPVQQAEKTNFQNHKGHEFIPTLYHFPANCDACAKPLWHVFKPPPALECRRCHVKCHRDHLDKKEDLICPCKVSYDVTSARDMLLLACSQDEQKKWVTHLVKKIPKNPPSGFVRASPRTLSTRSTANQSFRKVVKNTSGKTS

In the case of `O=C(NC(CO)c1cccc(F)c1F)c1cccc(-c2ccc3[nH]ncc3c2)c1` (stereo not shown) [Compound 19], the figures for the IC50 in experiment [1] and in experiment [2] were 35 nM and 735 nM, respectively.

As for `COc1cccc(C(CN2CCNCC2)NC(=O)c2cccc(-c3ccc4[nH]ncc4c3)c2)c1` (stereo not shown) [Compound 32], the results for the IC50 in experiment [1] and in experiment [2] were 23 nM and 343 nM, respectively. On to `COc1cccc(C(CN)NC(=O)c2cccc(-c3ccc4[nH]nc(F)c4c3)c2)c1` (stereo not shown) [Compound 54], for which the IC50 stood at 21 nM in experiment [1] and 180 nM in experiment [2]. On to `COc1cccc(C(CN)NC(=O)c2cccc(-c3ccc4[nH]nc(C5CC5)c4c3)c2)c1` (stereo not shown) [Compound 68], for which, in experiment [1], the IC50 came to 8 nM. `COc1cccc(C(CO)NC(=O)c2cccc(-c3ccc4[nH]nc(N)c4c3)c2)c1` (stereo not shown) [Compound 27]: the IC50 in experiment [1] worked out at 30 nM; in experiment [2], 407 nM.

For `Cc1n[nH]c2ccc(-c3cccc(C(=O)NC(CN)c4cccc(Cl)c4)c3)cc12` (stereo not shown) [Compound 43], the IC50 worked out at 6 nM in experiment [1] and 153 nM in experiment [2]. Consider `O=C(NC(CCO)c1ccccc1F)c1cccc(-c2ccc3[nH]ncc3c2)c1` (stereo not shown) [Compound 20], for which the IC50 turned out to be 35 nM in experiment [1] and 304 nM in experiment [2]. In the case of `O=C(NC(CO)c1cccc(F)c1)c1cccc(-c2ccc3[nH]nc(F)c3c2)c1` (stereo not shown) [Compound 60], the values for the IC50 in experiment [1] and in experiment [2] were 44 nM and 215 nM, respectively.

As for `COc1cccc(C(CN)NC(=O)c2cc(-c3ccc4[nH]nc(F)c4c3)ccc2OC)c1` (stereo not shown) [Compound 51], the IC50 turned out to be 7 nM in experiment [1] and 50 nM in experiment [2].

`COc1cccc(C(CN)NC(=O)c2cccc(-c3ccc4[nH]nc(F)c4c3)c2)c1` (stereo not shown) [Compound 28]: the IC50 in experiment [1] was determined as 13 nM; in experiment [2] it was 43 nM. As for `COc1cccc(C(CCO)NC(=O)c2cc(-c3ccc4[nH]ncc4c3)ccn2)c1` (stereo not shown) [Compound 4], the IC50 amounted to 6 nM in experiment [1] and 288 nM in experiment [2]. In the case of `COc1cccc(C(CN)NC(=O)c2cc(C#N)cc(-c3ccc4[nH]nc(C)c4c3)c2)c1` (stereo not shown) [Compound 57], the IC50 in experiment [1] stood at 58 nM; in experiment [2], 1260 nM. For `COc1cccc(C(CO)NC(=O)c2cc(-c3ccc4[nH]ncc4c3)ccc2F)c1` (stereo not shown) [Compound 15], the values for the concentration for half-maximal inhibition (IC50) in experiment [1] and in experiment [2] were 12 nM and 278 nM, respectively. For the molecule `O=C(NC(CCO)c1cccc(Cl)c1)c1cccc(-c2ccc3[nH]ncc3c2)c1` (stereo not shown) [Compound 13], the IC50 in experiment [1] stood at 16 nM; in experiment [2], 139 nM. Consider `O=C(NC(CO)c1ccc(F)c(F)c1)c1cccc(-c2ccc3[nH]ncc3c2)c1` (stereo not shown) [Compound 18], for which the IC50 in experiment [1] amounted to 29 nM. Take `O=C(NC(CCO)c1cccc(F)c1)c1cccc(-c2ccc3[nH]ncc3c2)c1` (stereo not shown) [Compound 6]: the results for the IC50 in experiment [1] and in experiment [2] were 7 nM and 63 nM, respectively. Consider `COc1cccc(C(CN)NC(=O)c2cc(-c3ccc4[nH]nc(C)c4c3)ccc2OC)c1` (stereo not shown) [Compound 50], for which the results for the IC50 in experiment [1] and in experiment [2] were 5 nM and 56 nM, respectively. The molecule `COc1cccc(CNC(=O)c2cccc(-c3ccc4[nH]ncc4c3)c2)c1` [Compound 21] returned an IC50 in experiment [1] of 3 nM. For `COc1cccc(C(CN)NC(=O)c2cc(-c3ccc4[nH]nc(C)c4c3)ncn2)c1` (stereo not shown) [Compound 69], the half-maximal inhibitory concentration (IC50) in experiment [1] turned out to be 12 nM. In the case of `Cc1n[nH]c2ccc(-c3cccc(C(=O)NC(CN)c4cccc(OC5CC5)c4)c3)cc12` (stereo not shown) [Compound 63], in experiment [1], the IC50 was found to be 35 nM. With `COc1cccc(C(CN)NC(=O)c2cc(-c3ccc4[nH]nc(C)c4c3)cc3c2CNC3)c1` (stereo not shown) [Compound 33], the concentration for half-maximal inhibition (IC50) in experiment [1] amounted to 16 nM. For the molecule `COc1cccc(C(CNC(C)C)NC(=O)c2cc(-c3ccc4[nH]nc(C)c4c3)ccn2)c1` (stereo not shown) [Compound 70], the IC50 in experiment [1] is 24 nM. On to `O=C(NC(CO)c1cc(F)cc(F)c1)c1cccc(-c2ccc3[nH]ncc3c2)c1` (stereo not shown) [Compound 17], for which, in experiment [1], the IC50 came to 23 nM. As to `NCC(NC(=O)c1cccc(-c2ccc3[nH]nc(F)c3c2)c1)c1cccc(F)c1` (stereo not shown) [Compound 41], the IC50 in experiment [1] was determined as 21 nM. Molecule `Cc1n[nH]c2ccc(-c3cccc(C(=O)NC(CN)c4cccc(F)c4)c3)cc12` (stereo not shown) [Compound 42] registered an IC50 in experiment [1] of 4 nM.
